Data reported in the NIST ThermoML archive (doi:10.1016/j.tca.2006.04.001).

Conditions: Liquid, Pycnometric method

CCCCCCCCCCCCCCCC [hexadecane]
Conditions | specific volume [m3/kg]
298 K | 0.001313
323 K | 0.001344
348 K | 0.001376
373 K | 0.001411
398 K | 0.001447
423 K | 0.001486
448 K | 0.001529
473 K | 0.001575
498 K | 0.001626
523 K | 0.001682
548 K | 0.001744
573 K | 0.001811
